Patent US12016336B2 (priority 2020, dated 2024)
Where a name gives a salt, the structure may show the parent alone. Read-outs that look alike come from different tables or passages of the source.

Columns and labels:
[1] = type: physicochemical
[2] = type: physicochemical; remark: listed apart in the source
[3] = room temperature, 90% H2O/D2O
Solubility in water = type: physicochemical
[4] = type: physicochemical; remark: listed apart in the source
people = conditions: exposure in the air; cited from earlier work
[5] = tested on: radish, peas, and lettuce plants; conditions: Carter et al., cited from earlier work
soybeans = assay: Field trial: harvest yield of soybeans (Example 27); type: in vivo; conditions: 2 kg per acre, side dressing, versus not exposed
Text: All essential plant nurtients (N, P, K, and S) were applied in non-limiting amounts. Prior to planting soybeans, the fields were fertilized with 60 lb acre of P2O5, 80 lb per acre of K20, and 20 lb per acre of sulfur. The soybean seeds were a 2.8-3.2 relative maturity planted at 120,000 to 140,000 seeds per acre. All field management were designed to effectively control weed and insect pests to optimize soybean growth and yield. The soybeans were planted and either 0, 0.5, 1.0, or 2.0 kg per acre of dibutyldithiophosphate was applied as a side dressing to the soybean plants. The dibutyldithiophosphate was dissolved in water and applied. The harvest weight was determined for each plot and corrected for slight differences in moisture content.

corn = assay: Growth of corn in pots exposed to dibutyldithiophosphate (Example 20); type: in vivo; conditions: 4 weeks
Procedure: Corn was planted in 6″ TEKU pots. The pots were packed finger tight with potting mix #4 from Beautiful Land Products. The corn seeds were planted approximately 1.5 inches deep. Fifty seeds of corn were planted for every loading of dibutyldithiophosphate ammonium salt. After the seeds were added to the soil the dibutyldithiophosphate ammonium salt was added as a fully dissolved aqueous solution. Tap water (500 mL) was added to a measured amount of the salt to yield desired amount in 10 mL After mixing well for 10 minutes, the aqueous solution was added to each plant via syringe (10 mL) immediately around and on the seed. After adding the salt, the plants were moved outside in full sunlight until harvest. The corn plants were watered daily.
The corn was harvested after 4 weeks. Plant height was taken by straightening the corn plant out by the leaves and measuring from the base of the shoot to the longest point on the leaf. After removing the roots, the weight of the shoot and leaves was measured using a balance.
Statistical analysis was performed using IBM SPSS Statistics 25. Non-parametric Kruskal-Wallis test was performed to determine significance. Data represented are mean±standard error with ** indicating α<0.05 and * indicating α<0.1.

[6] = water buffered at pH 6.7, FIG. 4

SMILES: CCCCOP(=S)(S)OCCCC [Example 1, Dibutyldithiophosphate Ammonium Salt]
- Release of H2S (rank among the dithiophosphates) [1, 6]: lowest
- Rate of first-step of hydrolysis (85° C.) ([2]; 85° C., 90% H2O/D2O): 0.00096 h⁻¹
- Time to complete hydrolysis ([2]; 85° C., 90% H2O/D2O, to phosphoric acid only): 180 days
- Hydrolysis slower than the compound of Example 2 ([2]; 85° C., versus Example 2): 3.5 ×
- Hydrolysis slower than the dithiophosphate of Example 3 ([2]; 85° C., versus Example 3): 7.4 ×
- Hydrolysis slower than the dithiophosphate of Example 4 ([2]; 85° C., versus Example 4): 1.4 ×
- Percent Degradation ([3]; 30 days, 31P NMR): <3%

SMILES: CC(C)[C@@H]1CC[C@@H](C)C[C@H]1OP(=S)([S-])O[C@@H]1C[C@H](C)CC[C@H]1C(C)C.[K+] [Example 5]
- Release of H2S at 5 mM ([1]; pH 6.7): released H2S
- Solubility in water at 5 mM (Solubility in water; concentration of 5 mM): mostly insoluble in water
- Solubility in water of the potassium and triethylamine salts (Solubility in water): insoluble in water

SMILES: CC1(C)[C@@H]2CC[C@]1(C)[C@H](OP(=S)(S)O[C@@H]1C[C@H]3CC[C@@]1(C)C3(C)C)C2 [Example 7]
- Solubility in water of the potassium and triethylamine salts (Solubility in water): insoluble in water

SMILES: CC(C)(C)OP(=S)([S-])OC(C)(C)C.[Na+] [Example 8, Di(Tert-Butanol)Dithiophosphate Sodium Salt]
- Release of H2S (rank among the dithiophosphates) [1, 6]: highest
- Rate of hydrolysis slower at room temperature than at 85° C. ([2]; room temperature versus 85° C.): 2,600 ×
- Rate of first-step of hydrolysis ([2]; room temperature, 90% H2O/D2O): 0.0051 h⁻¹
- ΔΔG^‡ ([4]; 25° C. versus 85° C.): 0.526 kcal/mol
- ΔH^‡ ([4]; rate constants measured from 25 to 85° C.): 27.84 kcal/mol
- Percent degraded at day 12 ([3]; day 12): 62%
- Percent degraded at day 20 ([3]; day 20): 88%

SMILES: S=P(S)(Sc1ccccc1)Sc1ccccc1 [Example 13]
- Solubility in water of the potassium and triethylamine salts (Solubility in water): insoluble in water

SMILES: S=P1(S)OCCS1 (stereo not drawn) [Example 14]
- Release of H2S (rank among the dithiophosphates) ([1]; pH 6.7): highest

SMILES: S [Example H2S, hydrogen sulfide]
- Level immediately dangerous to life and health (people): 100 ppm

SMILES: C1COCCN1.COc1ccc(P(=S)(S)N2CCOCC2)cc1 (stereo not drawn) [GYY-4137]
- Growth of radish, peas, and lettuce plants [5]: increased the growth
- Harvest yield of radishes ([5]; milligram loadings): doubled

SMILES: CCCCOP(=S)(S)OCCCC [dibutyldithiophosphate]
- Increase in harvest yield of soybeans (soybeans): 4.4%
- Increase in weight of the corn plants (corn; 1 mg added to the soil adjacent to the seed, versus plants grown without): 39%
- Weight of the corn plants (significance) (corn; 1, 10, 50, and 75 mg loadings): statistically significant improvements
- Heights of the corn plants (corn; all loadings): Little statistically significant difference
